Measured values reported in US20240246935A1 (Plexium, Inc., priority 2021, published 2024).

What was measured:
IKZF2 (Helios) = assay: IKZF2 reporter degradation assay (HEK 293T IKZF2-mNeonGreen reporter cell line); assay type: cell-based, human; details: 1 μM compound, 24 hour incubation, HEK 293T IKZF2-mNeonGreen reporter
Description: Polycistronic plasmids were constructed for the mammalian expression of fluorescent reporter fusions of human transcription factors IKZF1 (Ikaros), IKZF2 (Helios), and IKZF3 (Aiolos). The respective protein sequences had their C-terminal end joined to a GGGGS linker repeated three times followed by mNeonGreen, P2A sequence, and mScarlet. The DNA sequences of the open reading frames are as follows:
IKZF1, IKZF2, and IKZF3 constructs were cloned into the UCOE Hygromycin expression vectors (Millipore Sigma). Reporter constructs were transfected using cationic lipid reagents into adherent HEK 293T cells and stable integrants were selected by treatment with 200 μg/mL hygromycin B. Clonal populations were obtained from the population of stable integrants either by limiting dilution or fluorescence activated cell sorting.
The clonal stable cell lines were maintained under constant 200 μg/mL hygromycin B selection while being passaged for use in the degradation assays. […] The fluorescence intensity of the IKZF1/2/3-mNeonGreen (FITC channel) and mScarlet (PE channel) reporters were routinely analyzed by flow cytometry to confirm consistent expression levels between experiments.
The IKZF1/IKZF2/IKZF3 degradation assays were carried out by harvesting the HEK 293T reporter cell lines and resuspending the cells in media formulated for reduced background fluorescence (FluoroBrite; Thermo Fisher). The respective cell lines were seeded at a density of 4000 cells/well into black-walled 384-well optical grade assay tissue culture plates. The cells were incubated overnight at 37° C. to allow for attachment to the assay plate. Dilutions of the compounds were prepared in DMSO from 10 mM compound stocks. The assay plates were treated with appropriate concentrations of the compounds by dispensing the DMSO dilutions in quadruplicate wells with an upper limit of 0.5% final DMSO.
After 24 hour incubation with the compounds, the assay plates were imaged on an ImageXpress Pico microscopy system (cells maintained at 37° C. during imaging) to obtain the fluorescent readouts. The assay plates were imaged in the FITC and Tetramethylrhodamine (TRITC) channels to obtain the mNeonGreen fluorescence intensity (reporter degradation data) and mScarlet fluorescence intensity (for cell segmentation). 293T-IKZF1 and 293T-IKZF3 reporter cell lines were imaged with exposures of 500 milliseconds (ms) for both FITC and TRITC channels, while the 293T-IKZF2 reporter cell line was imaged with exposures of 1000 ms for FITC and 1250 ms for TRITC. The resulting data was analyzed with Cell Reporter Xpress software using the 2-channel cell scoring analysis with a “percent positive” readout. The TRITC channel was selected for the “nuclei” segmentation with a threshold of 20 while the FITC channel was selected for the “Marker 1” segmentation and a threshold of 100 for the IKZF1 and IKZF3 reporter lines. […] The minimum segmentation width was set to 6 micrometers and the maximum segmentation width was set to 15 micrometers for all cell lines. The DCs calculations were determined by regression to best fit four-parameter logistic curves using GraphPad Prism.

[1] = biological target: human E3 ligase component cereblon (CRBN) (Homo sapiens (Human), UniProt Q96SW2); assay: Cereblon (CRBN) target engagement, NanoBRET TE Intracellular E3 Ligase Assay in transfected HEK-293T cells; details: read-out: CRBN Binding EC50
Summary of the method: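 Live HEK-293T cells co-transfected overnight with NanoLuc-CRBN (CRBN at NanoLuc C-terminus) and DDB1 vectors (10:990 ng) were given CRBN tracer and an 11-point compound series for 2 h at 37° C. BRET read at 450/610 nm with extracellular NanoLuc inhibitor present; IC50 from four-parameter logistic fit.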

Chain of human E3 ligase component cereblon (CRBN) (Q96SW2 whole entry): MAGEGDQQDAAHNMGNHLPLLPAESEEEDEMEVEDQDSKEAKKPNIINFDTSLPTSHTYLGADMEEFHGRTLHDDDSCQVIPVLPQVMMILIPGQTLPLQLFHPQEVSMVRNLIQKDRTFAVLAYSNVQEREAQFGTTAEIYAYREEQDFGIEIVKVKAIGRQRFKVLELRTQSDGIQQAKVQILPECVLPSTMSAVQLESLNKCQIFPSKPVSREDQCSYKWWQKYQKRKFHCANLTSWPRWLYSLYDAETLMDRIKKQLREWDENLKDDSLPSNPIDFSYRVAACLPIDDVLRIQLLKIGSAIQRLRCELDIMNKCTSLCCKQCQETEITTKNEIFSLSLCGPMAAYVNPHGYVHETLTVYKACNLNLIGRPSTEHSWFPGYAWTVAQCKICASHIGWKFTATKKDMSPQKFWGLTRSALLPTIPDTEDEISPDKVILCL
Chain of human E3 ligase component cereblon (CRBN) (Q16531 whole entry partner): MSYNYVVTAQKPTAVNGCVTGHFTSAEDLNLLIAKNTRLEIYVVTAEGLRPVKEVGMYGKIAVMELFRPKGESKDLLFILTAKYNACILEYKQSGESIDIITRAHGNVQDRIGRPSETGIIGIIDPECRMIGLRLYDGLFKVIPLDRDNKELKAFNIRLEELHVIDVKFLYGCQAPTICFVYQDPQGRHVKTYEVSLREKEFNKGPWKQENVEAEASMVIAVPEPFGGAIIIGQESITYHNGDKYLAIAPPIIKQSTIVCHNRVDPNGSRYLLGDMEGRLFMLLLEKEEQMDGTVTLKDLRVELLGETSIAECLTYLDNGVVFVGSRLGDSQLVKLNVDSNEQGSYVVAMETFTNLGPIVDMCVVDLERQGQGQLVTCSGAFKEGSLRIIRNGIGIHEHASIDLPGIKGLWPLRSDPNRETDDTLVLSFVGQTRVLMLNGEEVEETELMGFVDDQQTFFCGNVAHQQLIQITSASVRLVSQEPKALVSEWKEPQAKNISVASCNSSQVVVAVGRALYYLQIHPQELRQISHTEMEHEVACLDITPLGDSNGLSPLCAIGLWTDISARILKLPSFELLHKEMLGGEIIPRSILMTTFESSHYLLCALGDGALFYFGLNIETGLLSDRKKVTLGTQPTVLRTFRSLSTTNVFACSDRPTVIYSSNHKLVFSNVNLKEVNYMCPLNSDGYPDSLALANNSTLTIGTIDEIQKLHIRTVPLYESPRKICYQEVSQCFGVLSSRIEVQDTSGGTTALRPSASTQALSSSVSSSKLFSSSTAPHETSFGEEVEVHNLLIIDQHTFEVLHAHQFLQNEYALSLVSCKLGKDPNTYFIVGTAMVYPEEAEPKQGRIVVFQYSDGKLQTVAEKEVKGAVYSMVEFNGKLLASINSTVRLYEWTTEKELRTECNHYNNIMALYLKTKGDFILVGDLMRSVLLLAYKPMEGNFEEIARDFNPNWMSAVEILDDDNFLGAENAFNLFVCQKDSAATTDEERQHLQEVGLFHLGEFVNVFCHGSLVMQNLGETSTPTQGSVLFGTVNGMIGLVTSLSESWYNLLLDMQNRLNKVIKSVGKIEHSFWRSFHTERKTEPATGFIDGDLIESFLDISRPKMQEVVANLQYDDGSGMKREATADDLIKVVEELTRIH

Molecule	IKZF2 % Degradation @ 1 μM (IKZF2 (Helios)) [%]	EC50 [1] [nM]
O=C1CCC(N2Cc3cc(O[C@H]4CCCC[C@@H]4N4CC(c5ccc(F)cc5)C4)ccc3C2=O)C(=O)N1 (single isomer, unassigned) [Compound 51]	74.2	18
N#Cc1ccc(C2CN(C3CCCC3Oc3ccc4c(c3)CN(C3CCC(=O)NC3=O)C4=O)C2)cc1 (centres unmarked) [Compound 98, 4-(1-(2-((2-(2,6-dioxopiperidin-3-yl)-1-oxoisoindolin-5-yl)oxy)cyclopentyl)azetidin-3-yl)benzonitrile]	<15	32
Rac-3-(5-(((trans)-2-(3-hydroxy-3-phenylazetidin-1-yl)cyclohexyl)oxy)-1-oxoisoindolin-2-yl)piperidine-2,6-dione [Compound 96]	78.9	42
N#Cc1cc(Cl)ccc1C1CN([C@H]2CCCC[C@H]2Oc2ccc3c(c2)CN(C2CCC(=O)NC2=O)C3=O)C1 (stereo partly drawn) [Compound 40, 5-chloro-2-(1-((1S,2R)-2-((2-(2,6-dioxopiperidin-3-yl)-1-oxoisoindolin-5-yl)oxy)cyclohexyl)azetidin-3-yl)benzonitrile]	<15	11
N#Cc1cccc(C2CN([C@H]3CCCC[C@@H]3Oc3ccc4c(c3)CN(C3CCC(=O)NC3=O)C4=O)C2)c1 (stereo partly drawn) [Compound 113, 3-(1-((1S,2S)-2-((2-(2,6-dioxopiperidin-3-yl)-1-oxoisoindolin-5-yl)oxy)cyclohexyl)azetidin-3-yl)benzonitrile]	73.7	13
O=C1CCC(N2Cc3cc(O[C@H]4CCCC[C@@H]4N4CC(c5cccc(N6CCOCC6)c5)C4)ccc3C2=O)C(=O)N1 (stereo partly drawn) [Compound 112, 3-(5-(((1S,2S)-2-(3-(3-morpholinophenyl)azetidin-1-yl)cyclohexyl)oxy)-1-oxoisoindolin-2-yl)piperidine-2,6-dione]	72.6	25
O=C1CCC(N2Cc3cc(O[C@H]4CCCC[C@@H]4N4CC(c5ccccc5)C4)c(F)cc3C2=O)C(=O)N1 (single isomer, unassigned) [Compound 53]	86.9	29
N#Cc1cc(Cl)ccc1C1CN([C@@H]2CCCC[C@@H]2Oc2ccc3c(c2)CN(C2CCC(=O)NC2=O)C3=O)C1 (single isomer, unassigned) [Compound 37]	<15	25
N#Cc1cc(Cl)ccc1C1CN([C@H]2CCCC[C@@H]2Oc2ccc3c(c2)CN(C2CCC(=O)NC2=O)C3=O)C1 (single isomer, unassigned) [Compound 38]	84.9	52
N#Cc1ccccc1C1CN([C@H]2CCCC[C@H]2Oc2ccc3c(c2)CN(C2CCC(=O)NC2=O)C3=O)C1 (mixture of isomers) [Compound 109, Rac-2-(1-((cis)-2-((2-(2,6-dioxopiperidin-3-yl)-1-oxoisoindolin-5-yl)oxy)cyclohexyl)azetidin-3-yl)benzonitrile]	<15	37
O=C1CCC(N2Cc3cc(O[C@H]4CCCC[C@@H]4N4CCC4c4ccccc4)ccc3C2=O)C(=O)N1 (stereo partly drawn) [Compound 55, 3-(1-oxo-5-(((1S,2S)-2-(2-phenylazetidin-1-yl)cyclohexyl)oxy)isoindolin-2-yl)piperidine-2,6-dione]	38.1	158
O=C1CCC(N2Cc3c(ccc(O[C@H]4CCCC[C@@H]4N4CC(c5ccccc5)C4)c3Cl)C2=O)C(=O)N1 (single isomer, unassigned) [Compound 41]	<15	61
N#Cc1cc(F)ccc1C1CN([C@@H]2CCCC[C@H]2Oc2ccc3c(c2)CN(C2CCC(=O)NC2=O)C3=O)C1 (single isomer, unassigned) [Compound 43]	<15	42
O=C1CCC(N2Cc3cc(O[C@H]4CCCC[C@@H]4N4CC(c5ccc(OC(F)F)cc5)C4)ccc3C2=O)C(=O)N1 (stereo partly drawn) [Compound 81, 3-(5-(((1S,2S)-2-(3-(4-(difluoromethoxy)phenyl)azetidin-1-yl)cyclohexyl)oxy)-1-oxoisoindolin-2-yl)piperidine-2,6-dione]	77.6	9
N#Cc1cc(Cl)ccc1C1CN([C@H]2CCC[C@@H]2Oc2ccc3c(c2)CN(C2CCC(=O)NC2=O)C3=O)C1 (mixture of isomers) [Compound 83, Rac-5-chloro-2-(1-((trans)-2-((2-(2,6-dioxopiperidin-3-yl)-1-oxoisoindolin-5-yl)oxy)cyclopentyl)azetidin-3-yl)benzonitrile]	48.8	36
O=C1CCC(N2Cc3cc(O[C@H]4CCC[C@@H]4N4CC(c5ccc(-n6cccn6)cc5)C4)ccc3C2=O)C(=O)N1 (stereo partly drawn) [Compound 73, 3-(5-(((1S,2S)-2-(3-(4-(1H-pyrazol-1-yl)phenyl)azetidin-1-yl)cyclopentyl)oxy)-1-oxoisoindolin-2-yl)piperidine-2,6-dione]	63.6	5
O=C1CCC(N2Cc3c(ccc(O[C@H]4CCCC[C@@H]4N4CC(c5ccccc5)C4)c3Cl)C2=O)C(=O)N1 (single isomer, unassigned) [Compound 42]	<15	43
N#Cc1cccc(C2CN([C@H]3CCCC[C@H]3Oc3ccc4c(c3)CN(C3CCC(=O)NC3=O)C4=O)C2)c1 (mixture of isomers) [Compound 76, Rac-3-(1-((cis)-2-((2-(2,6-dioxopiperidin-3-yl)-1-oxoisoindolin-5-yl)oxy)cyclohexyl)azetidin-3-yl)benzonitrile]	73.7	22
N#Cc1cc(F)ccc1C1CN([C@H]2CCCC[C@@H]2Oc2ccc3c(c2)CN(C2CCC(=O)NC2=O)C3=O)C1 (single isomer, unassigned) [Compound 44]	85.6	65
N#Cc1cc(Cl)ccc1C1CN([C@H]2CCCC[C@@H]2Oc2ccc3c(c2)CN(C2CCC(=O)NC2=O)C3=O)C1 (single isomer, unassigned) [Compound 39]	84.6	8
O=C1CCC(N2Cc3cc(O[C@H]4CCCC[C@@H]4N4CC(c5ccc(F)cc5F)C4)ccc3C2=O)C(=O)N1 (stereo partly drawn) [Compound 57, 3-(5-(((1S,2S)-2-(3-(2,4-difluorophenyl)azetidin-1-yl)cyclohexyl)oxy)-1-oxoisoindolin-2-yl)piperidine-2,6-dione]	85.8	6
O=C1CCC(N2Cc3cc(OC4CCCCC4N4CC(c5ccccc5)C4)ccc3C2=O)C(=O)N1 (centres unmarked) [Compound 118, 3-(1-oxo-5-((2-(3-phenylazetidin-1-yl)cyclohexyl)oxy)isoindolin-2-yl)piperidine-2,6-dione]	<15	36
O=C1CCC(N2Cc3cc(O[C@H]4CCC[C@@H]4N4CC(c5ccccc5)C4)ccc3C2=O)C(=O)N1 (stereo partly drawn) [Compound 120, 3-(1-oxo-5-(((1S,2S)-2-(3-phenylazetidin-1-yl)cyclopentyl)oxy)isoindolin-2-yl)piperidine-2,6-dione]	78.8	11
O=C1CCC(N2Cc3cc(O[C@H]4CCCC[C@H]4N4CC(c5cccc(C(F)(F)F)c5)C4)ccc3C2=O)C(=O)N1 (mixture of isomers) [Compound 63, Rac-3-(1-oxo-5-(((cis)-2-(3-(3-(trifluoromethyl)phenyl)azetidin-1-yl)cyclohexyl)oxy)isoindolin-2-yl)piperidine-2,6-dione]	44.9	15
O=C1CCC(N2Cc3cc(OC4CCCCC4N4CC(c5ccccc5OC(F)(F)F)C4)ccc3C2=O)C(=O)N1 (centres unmarked) [Compound 68, 3-(1-oxo-5-((2-(3-(2-(trifluoromethoxy)phenyl)azetidin-1-yl)cyclohexyl)oxy)isoindolin-2-yl)piperidine-2,6-dione]	42.5	26
